These results are taken from article PMC9502271, “An Investigation of the Anti-Depressive Properties of Phenylpropanoids and Flavonoids in Hemerocallis citrina Baroni” (Molecules, 2022).

Like-named read-outs stand apart in the source and are kept apart here.

Assay [1] relates to NO production induced by LPS in BV2 cells. The experiment in a line: Inhibition of NO production in LPS-induced BV2 microglial cells (Griess reagent). The note with it: for IC50: compound test concentrations 3.125 to 100 μM, mean ± SD (n = 3), read-out: IC50 NO Inhibitory. The assay is classed as cell-based. The procedure:
(§1) BV2 microglia cells were purchased from iCell Bioscience Inc. (Shanghai, China). The cells were grown at 37 °C in a humid environment with 5% CO2. In DMEM with 10% fetal bovine serum and 1% penicillin-streptomycin solution, they were maintained alive. The following assays were carried out while the cells were in the exponential growth phase (subcultured 2–3 times).
To determine how much NO is produced, the literature was consulted. Equal parts of the Griess reagent (1% sulfanilamide and 0.1% N-(1-naphthyl) ethylenediamine dihydrochloride in 2.5% phosphoric acid) were combined with the sample-treated cell culture medium for 5 min at room temperature and in the dark. It was determined that the absorbance was at 540 nm using a microplate reader. The trials were conducted simultaneously in triplicate.
(Nitrite, measured by Griess reagent, commonly stands in for NO production.)

Assay [2] relates to BV2 microglial cells. The experiment in a line: CCK8 cytotoxic activity in BV2 microglial cells. The assay is classed as cell-based. The note with it: compound test concentrations 3.125 to 100 μM, read-out: IC50 Cell Viability. The procedure: as §1
The cytotoxic activity was assessed using the CCK8 test. In a 96-well plate, BV2 microglial cells (5 × 10^4 cells/well) were placed in each well and incubated for 12 h. After one hour with each substance, LPS (1 μg/mL) was applied to the BV2 microglia cells for an additional 24 h. The CCK8 solution was then incubated with BV2 cells for 1 h at 37 °C. The absorbance at 450 nm was measured using a plate reader (Molecular Devices, San Jose, CA, USA). The cells that had not been treated were assumed to have a 100% optical density.

The mark [3] stands for this setting: Mus musculus, BV-2, LPS-induced BV2 cells.
[4] abbreviates: Mus musculus, BV-2, CCK8, LPS 1 μg/mL 24 h.

A word on the IC50: it is the concentration at which inhibition is half-maximal. Take `O=C(O)/C=C/c1ccc(O)cc1` [Compound 1, (E)-p-coumaric acid]: the IC50 in assay [1] (setting [3]) and in assay [2] (setting [4]) was > 100 µM throughout.
Take `O=C(O)/C=C\c1ccc(O)cc1` [Compound 2, (Z)-p-coumaric acid]: the IC50 in assay [1] (setting [3]) and in assay [2] (setting [4]) was > 100 µM throughout.
With `O=C(/C=C/c1ccc(O)cc1)O[C@H]1C[C@](O)(C(=O)O)C[C@H](O)[C@H]1O` [Compound 3, 3-O-(E)-p-coumaroylquinic acid], the IC50 in assay [1] (LPS-induced BV2 cells) is 78.5 ± 8.23 µM; in assay [1] (setting [3]), < 100 µM; in assay [2] (setting [4]), > 100 µM.
For the compound `O=C(/C=C\c1ccc(O)cc1)O[C@H]1C[C@](O)(C(=O)O)C[C@H](O)[C@H]1O` [Compound 4, 3-O-(Z)-p-coumaroylquinic acid], the figures for the IC50 in assay [1] (LPS-induced BV2 cells), in assay [1] (setting [3]) and in assay [2] (setting [4]) were 70.4 ± 5.86 µM, < 100 µM and > 100 µM, respectively.
The matching figures for `COC(=O)[C@@]1(O)C[C@H](OC(=O)/C=C/c2ccc(O)cc2)[C@H](O)[C@@H](O)C1` [Compound 5, 3-O-(E)-p-coumaroylquinic acid methyl ester]: 95.8 ± 7.18 µM, < 100 µM and > 100 µM.
Take `COC(=O)[C@@]1(O)C[C@H](OC(=O)/C=C\c2ccc(O)cc2)[C@H](O)[C@@H](O)C1` [Compound 6, 3-O-(Z)-p-coumaroylquinic acid methyl ester]: the IC50 in assay [1] (setting [3]) and in assay [2] (setting [4]) was > 100 µM each time.
Regarding `O=C(C=Cc1ccc(O)cc1)OC1CC2(O)CC(OC2=O)C1O` (stereo not shown) [Compound 7, 3-O-(E)-p-coumaroylquinide], the IC50 in assay [1] (LPS-induced BV2 cells) is 94.6 ± 5.62 µM; in assay [2] (setting [4]), > 100 µM.
Regarding `O=C(C=Cc1ccc(O)cc1)OC1CC2(O)CC(OC2=O)C1O` (stereo not shown) [Compound 8, 3-O-(Z)-p-coumaroylquinide], the “inhibitory effects on NO production in comparison with the positive drug indomethacin” value (“inhibitory effects on NO production” for short) in assay [1] (LPS-induced BV2 cells) was “stronger inhibitory effects”. Further, in assay [2] (CCK8, LPS 1 μg/mL 24 h), the IC50 is > 100 µM.
Take `O=C(/C=C/c1ccc(O)cc1)O[C@H]1[C@@H](O)C[C@](O)(C(=O)O)C[C@@H]1O` [Compound 9, 4-O-(E)-p-coumaroylquinic acid]: the IC50 in assay [1] (setting [3]) and in assay [2] (setting [4]) was > 100 µM in each case.
As for `O=C(/C=C\c1ccc(O)cc1)O[C@H]1[C@@H](O)C[C@](O)(C(=O)O)C[C@@H]1O` [Compound 10, 4-O-(Z)-p-coumaroylquinic acid], the IC50 in assay [1] (setting [3]) and in assay [2] (setting [4]) was > 100 µM each time.
`O=C(/C=C/c1ccc(O)cc1)O[C@H]1C[C@@](O)(C(=O)O)C[C@H](O)[C@@H]1O` [Compound 11, 5-O-(E)-p-coumaroylquinic acid]: the IC50 in assay [1] (setting [3]) and in assay [2] (setting [4]) was > 100 µM throughout.
Regarding `O=C(/C=C/c1ccc(O)c(O)c1)O[C@H]1C[C@@](O)(C(=O)O)C[C@H](O)[C@@H]1O` [Compound 12, neochlorogenic acid], the IC50 in assay [1] (setting [3]) and in assay [2] (setting [4]) was > 100 µM in each case.
In the case of `O=C(/C=C/c1ccc(O)c(O)c1)O[C@H]1[C@@H](O)C[C@](O)(C(=O)O)C[C@@H]1O` [Compound 13, crypto-chlorogenic acid], the results for the IC50 in assay [1] (LPS-induced BV2 cells), in assay [1] (setting [3]) and in assay [2] (setting [4]) were 74.4 ± 6.53 µM, < 100 µM and > 100 µM, respectively.
`O=C(/C=C/c1ccc(O)c(O)c1)O[C@@H]1C[C@](O)(C(=O)O)C[C@@H](O)[C@H]1O` [Compound 14, chlorogenic acid]: the IC50 in assay [1] (setting [3]) and in assay [2] (setting [4]) was > 100 µM throughout.
In the case of `COc1cc(/C=C/C(=O)O[C@@H]2C[C@@](O)(C(=O)O)C[C@@H](O)[C@@H]2O)ccc1O` [Compound 15, 3-O-(E)-feruloylquinic acid], the concentration for half-maximal inhibition (IC50) in assay [1] (setting [3]) and in assay [2] (setting [4]) was > 100 µM in each case.
Consider `O=c1c(O)c(-c2ccc(O)c(O)c2)oc2cc(O)cc(O)c12` [Compound 16, quercetin], for which, in assay [1] (LPS-induced BV2 cells), the “inhibitory effects on NO production” value is reported as “stronger inhibitory effects”. Besides, in assay [2] (setting [4]), the IC50 is > 100 µM.
Consider `O=c1c(O[C@@H]2O[C@H](CO)[C@H](O)[C@H](O)[C@H]2O)c(-c2ccc(O)c(O)c2)oc2cc(O)cc(O)c12` [Compound 18, quercetin-3-O-β-D-galactpyranoside], for which the IC50 in assay [1] (setting [3]) and in assay [2] (setting [4]) was > 100 µM each time.
Consider `O=c1c(O[C@@H]2O[C@H](CO)[C@@H](O)[C@H](O)[C@H]2O)c(-c2ccc(O)c(O)c2)oc2cc(O)cc(O)c12` [Compound 19, quercetin-3-O-β-D-glucopyranoside], for which the IC50 in assay [1] (setting [3]) and in assay [2] (setting [4]) was > 100 µM each time.
With `C[C@@H]1O[C@@H](OC[C@H]2O[C@@H](Oc3c(-c4ccc(O)c(O)c4)oc4cc(O)cc(O)c4c3=O)[C@H](O)[C@@H](O)[C@@H]2O)[C@H](O)[C@H](O)[C@H]1O` [Compound 20, quercetin-3-O-rutinoside], the IC50 in assay [1] (setting [3]) and in assay [2] (setting [4]) was > 100 µM each time.
Turning to `C[C@@H]1O[C@@H](OC[C@H]2O[C@@H](Oc3c(-c4ccc(O)c(O)c4)oc4cc(O)cc(O)c4c3=O)[C@H](O)[C@@H](O)[C@H]2O)[C@H](O)[C@H](O)[C@H]1O` [Compound 21, quercetin-3-O-α-L-rhamnopyranosyl-(1→6)-β-D-galactpyranoside], the concentration for half-maximal inhibition (IC50) in assay [1] (setting [3]) and in assay [2] (setting [4]) was > 100 µM each time.
In the case of `C[C@@H]1O[C@@H](OC[C@H]2O[C@@H](Oc3c(-c4ccc(O)c(O)c4)oc4cc(O)cc(O)c4c3=O)[C@H](O[C@@H]3O[C@@H](C)[C@H](O)[C@@H](O)[C@H]3O)[C@@H](O)[C@@H]2O)[C@H](O)[C@H](O)[C@H]1O` [Compound 22, quercetin-3-O-α-L-rhamnopyranosyl-(1→2)-[α-L-rhamnopyranosyl-(1→6)-β-D-glucopyranoside]], the IC50 in assay [1] (setting [3]) and in assay [2] (setting [4]) was > 100 µM throughout.
On to `C[C@@H]1O[C@@H](OC[C@H]2O[C@@H](Oc3c(-c4ccc(O)c(O)c4)oc4cc(O)cc(O)c4c3=O)[C@H](O[C@@H]3O[C@@H](C)[C@H](O)[C@@H](O)[C@H]3O)[C@@H](O)[C@H]2O)[C@H](O)[C@H](O)[C@H]1O` [Compound 23, quercetin-3-O-α-L-rhamnopyranosyl-(1→2)-[α-L-rhamnopyranosyl-(1→6)-β-D-galactpyranoside]], for which the IC50 in assay [1] (setting [3]) and in assay [2] (setting [4]) was > 100 µM throughout.
`COc1cc(-c2oc3cc(O)cc(O)c3c(=O)c2O)ccc1O` [Compound 24, isorhamnetin]: in assay [1] (LPS-induced BV2 cells), the “inhibitory effects on NO production” value is on record as “stronger inhibitory effects”. Besides, in assay [2] (setting [4]), the IC50 is > 100 µM.
In the case of `COc1cc(-c2oc3cc(O)cc(O)c3c(=O)c2O[C@@H]2O[C@H](CO)[C@H](O)[C@H](O)[C@H]2O)ccc1O` [Compound 25, isorhamnetin-3-O-β-D-galactopyranoside], the “inhibitory effects on NO production” value in assay [1] (LPS-induced BV2 cells) is recorded as “stronger inhibitory effects”. In addition, the IC50 in assay [2] (setting [4]) was > 100 µM.
For the compound `COc1cc(-c2oc3cc(O)cc(O)c3c(=O)c2O[C@@H]2O[C@H](CO)[C@@H](O)[C@H](O)[C@H]2O)ccc1O` [Compound 26, isorhamnetin-3-O-β-D-glucopyranoside], the IC50 in assay [1] (setting [3]) and in assay [2] (setting [4]) was > 100 µM in each case.
In the case of `COc1cc(-c2oc3cc(O)cc(O)c3c(=O)c2O[C@@H]2O[C@H](CO[C@@H]3O[C@@H](C)[C@H](O)[C@@H](O)[C@H]3O)[C@@H](O)[C@H](O)[C@H]2O)ccc1O` [Compound 27], the IC50 in assay [1] (setting [3]) and in assay [2] (setting [4]) was > 100 µM throughout.
Take `COc1cc(-c2oc3cc(O)cc(O)c3c(=O)c2O[C@@H]2O[C@H](CO[C@@H]3O[C@@H](C)[C@H](O)[C@@H](O)[C@H]3O)[C@H](O)[C@H](O)[C@H]2O[C@@H]2O[C@@H](C)[C@H](O)[C@@H](O)[C@H]2O)ccc1O` [Compound 28, isorhamnetin-3-O-α-L-rhamnopyranosyl-(1→2)-[α-L-rhamnopyranosyl-(1→6)-β-D-galactopyranoside]]: the values for the IC50 in assay [1] (LPS-induced BV2 cells), in assay [1] (setting [3]) and in assay [2] (setting [4]) were 90.7 ± 10.4 µM, < 100 µM and > 100 µM, respectively.
In the case of `COc1cc(-c2oc3cc(O)cc(O)c3c(=O)c2O[C@@H]2O[C@H](CO[C@@H]3O[C@@H](C)[C@H](O)[C@@H](O)[C@H]3O)[C@@H](O)[C@H](O)[C@H]2O[C@@H]2O[C@@H](C)[C@H](O)[C@@H](O)[C@H]2O)ccc1O` [Compound 29, isorhamnetin-3-O-α-L-rhamnopyranosyl-(1→2)-[α-L-rhamnopyranosyl-(1→6)-β-D-glucopyranoside]], the IC50 in assay [1] (setting [3]) and in assay [2] (setting [4]) was > 100 µM throughout.
On to `O=c1c(O)c(-c2ccc(O)cc2)oc2cc(O)cc(O)c12` [Compound 30, kaempferol], for which the “inhibitory effects on NO production” value in assay [1] (LPS-induced BV2 cells) is recorded as “stronger inhibitory effects”. In addition, the IC50 in assay [2] (setting [4]) was > 100 µM.
For the compound `O=c1c(O[C@@H]2O[C@H](CO)[C@H](O)[C@H](O)[C@H]2O)c(-c2ccc(O)cc2)oc2cc(O)cc(O)c12` [Compound 32, kaempferol-3-O-β-D-galactopyranoside], the IC50 in assay [1] (setting [3]) and in assay [2] (setting [4]) was > 100 µM throughout.
Regarding `O=c1c(O[C@@H]2O[C@H](CO)[C@@H](O)[C@H](O)[C@H]2O)c(-c2ccc(O)cc2)oc2cc(O)cc(O)c12` [Compound 33, kaempferol-3-O-β-D-glucopyranoside], the IC50 in assay [1] (setting [3]) and in assay [2] (setting [4]) was > 100 µM each time.
